From patent US12528826B2, “[1,4]oxazepino[2,3-c]quinolinone derivatives as BCL6 inhibitors” (Cancer Research Technology Limited, priority 2019, dated 2026)

Tests used:
[1] = test system: GC B cells and non-GC B cells in spleen cell cultures; assay: Mouse splenocyte flow cytometry immunology experiments; assay type: cell-based
Protocol: Male C57BL/6 mice were immunised in both flanks subcutaneously with CFA (100 μl of 4 mg/ml CFA). On day 8 the animals were terminated, spleens harvested and processed to single cell suspensions.
Splenocytes were resuspended in complete media (RPMI 1640+10% foetal calf serum, supplemented with 4 mM L-glutamine, 100 U/ml-100 μg/ml) penicillin/streptomycin and 50 μM B-mercaptoethanol (Gibco)). The cells were activated for 48 hours with 2 μg/ml αCD40 (ThermoFisher)+[…] IL-4 (Bio-techne) at 37° C. in a humidified CO2 incubator. Example 4b was added at the same time as activation in an 8-point dose titration. Following the culture period, cells were collected, washed with PBS (Gibco) and selected wells were counted using a LUNA™ Counter (Logos Biosystems).
Harvested cells were washed in PBS (Gibco) and stained with Invitrogen™ eBioscience™ Fixable Viability Dye eFluor 780 (Fisher scientific), then FcR blocked (Miltenyi Biotec) and stained with surface receptor antibodies (see Table 3 below). Cells were then washed in flow cytometry buffer (PBS supplemented with 1% BSA and 0.05% azide) and the secondary streptavidin was added. Cells were then washed, fixed and permeabilized in Transcription factor staining buffer (Fisher scientific); according to the manufacturer's instructions. Intracellular antibodies were then added to the samples. Following final washes, cells were fixed in 1% PFA and acquired on a BD LSR Fortessa™ (BD Bioscience). All analysis was carried out using FlowJo software v10.
In order to test the hypothesis that degradation or inhibition of Bcl6 may be able to modulate primary cells of the immune system, resulting in a decrease in their potential to generate autoantibodies, the above experiment was performed. Mice were immunised in order to drive the generation of germinal centre (GC) B cells. Spleens were then cultured in the presence or absence of a Bcl6 inhibitor (Example 4b) for 48 hours and non-GC B cells or GC B cells were identified using flow cytometry (FIG. 1).

[2] = biological target: T1, Trx-6×His-BCL6 (human BCL6 BTB domain covering amino-acid sequence 5-129) (Homo sapiens, UniProt P41182); assay: HTRF assay (BCL6 / BCOR peptide); assay type: binding; details: 1 nM Trx-6×His-BCL6, 300 nM BCOR-AF633 peptide, 2 hours incubation at room temperature; read-out: HTRF avg pIC50 (converted)
T1 construct: made in house
Protocol: After 2 hours incubation at room temperature the plate was read on a Pherastar FSX (BMG Labtech) plate reader equipped with 337 nm laser excitation filter, a first emission filter at 620 nm and a second emission filter at 665 nm. The % inhibition at each concentration was calculated by normalising FRET ratio to the appropriate high (DMSO with all reagents) and low (DMSO without BCL6) controls.

Cn1c(=O)c2c(c3cc(Nc4ccnc(F)c4Cl)ccc31)N[C@@H](C1CC1)C(F)(F)CO2 [Example 4b, (S)-10-((3-chloro-2-fluoropyridin-4-yl)amino)-2-cyclopropyl-3,3-difluoro-7-methyl-1,2,3,4-tetrahydro-[1,4]oxazepino[2,3-c]quinolin-6(7H)-one]
numbers of GC B cells as determined by expression of the lineage markers GL7 and CD95 ([1]; spleen cell cultures, 48 hours, at 10 μM (FIG. 4)): decreased
BCL6 expression in non-GC B cells (GeoMFI, flow cytometry) ([1]; splenocytes of CFA-immunised C57BL/6 mice, activated 48 hours with αCD40 + IL-4, various concentrations (FIG. 2)): did not result in a reduction
Blimp expression by GC B cells (GeoMFI, flow cytometry) ([1]; splenocytes of CFA-immunised C57BL/6 mice, activated 48 hours with αCD40 + IL-4, various concentrations (FIG. 3)): increase
IC50 [2]: 6.31 nM
